Consider 2 sequences from patent publication US10336808B2, “MHC peptide complexes and uses thereof in infectious diseases” (priority 2007, dated 2019).

What all share (type): cell-based, human
The test system of assay [1] is T2 cells loaded with peptide. Description: 51-Cr release assay of expanded T cell clones. The protocol:
The ten expanded T cell clones isolated by Flow sorting as shown in example 39 were tested for their specificity by analysis in a standard 51-Cr release assay. […] One of these BclX(L)173-182 specific CD8 T-cell clones [Clone 9] were expanded for further analyses.

Assay [2] concerns T2 cells pulsed with peptide. Description: 51Cr-release assays with Bcl-X(L)173-182 specific clone 9. The text has this:
The Bcl-X(L)173-182 specific clone 9 was expanded for additional 2 weeks before the cytotoxic potential was examined further in 51Cr-release assays.

Assay [3] deals with Bcl-X(L)-specific, CD8 positive T cells in PBL. Description: ELISPOT ex vivo with BclX(L) peptide. Conditions: PBL from a breast cancer patient, with vs without peptide, FIG. 15. As for the experimental part:
In example 22 the best binding BclX(L) 10-mer peptide for HLA-A*0201 was identified to be […] (SEQ ID NO.: 46196). This peptide has then been tested in ELISPOT to see if it were able to detect the presence Bcl-X(L)-specific, CD8 positive T cells in PBL (Peripheral Blood Lymphocytes) from a breast cancer patient. PBL from a breast cancer patient was analyzed by ELISPOT ex vivo either with or without the Bcl-X(L)173-182 peptide ([…] (SEQ ID NO.: 46196)), […] in doublets. The number of spots was counted using the Immunospot Series 2.0 Analyzer (CTL Analysers).

[4] abbreviates: CD8 T-cell clones 8, 9, 10, 11 and 12, FIG. 17.

In the case of “GLQHWVPEL [BA4697-105, irrelevant peptide, reference compound]”, the “lysis of peptide pulsed T2 cells” value in assay [1] (setting [4]) is reported as “without killing”.

With YLNDHLEPWI, the “cell lysis of T2 cells pulsed with different concentrations of peptide” value in assay [2] (clone 9, E:T ratio 1:1, FIG. 18) is listed as “significant even at low concentrations”. The “cell lysis of peptide pulsed T2 cells” value in assay [2] (clone 9, three E:T ratios, vs irrelevant peptide, FIG. 18) is “necessary to get killing of the target cell”. Further, the “lysis of peptide pulsed T2 cells” value in assay [1] (setting [4]) is listed as “effectively lysed”; in assay [1] (expanded clones 7, 13, 15, 17 and 18) it was “did not show specific lysis”. Further, in assay [3], the “ELISPOT detection of Bcl-X(L)-specific CD8 positive T cells (number of spots)” value is “clearly shows the presence of BclX(L) specific T-cells”.
